The values that follow come from ChEMBL document CHEMBL4392847, “Inhibition of pre-miRNA-136 processing by Dicer with small molecule BzDANP suggested the formation of ternary complex of pre-miR-136-BzDANP-Dicer” (Bioorg Med Chem, 2019).

For assay [1], the system named is pre-microRNA 136. Nature of the assay: Binding affinity to hairpin loop site of pre-miR-136 RNA (unknown origin) at RNA to compound molar ratio of 1:0 by NMR titration assay. It counts as nucleic-acid assay.
Assay [2] can be described thus: Binding affinity to pre-miR-136 RNA hairpin mutant (unknown origin) at 0.063 to 1 uM by SPR assay. (SPR reads the build-up and loss of mass on a sensor chip optically.)
In assay [3] the test system is pre-microRNA 136. Nature of the assay: Binding affinity to pre-miR-136 RNA (unknown origin) assessed as reduction in initial velocity of human recombinant Dicer-mediated substrate cleavage at 100 uM incubated for 30 mins using 32P-labeled RNA by denaturing polyacrylamide gel electrophoresis method. The format is nucleic-acid assay.
Assay [4] has as its system pre-microRNA 136. In words: Binding affinity to pre-miR-136 RNA (unknown origin) assessed as reduction in Vmax(app) for human recombinant Dicer-mediated substrate cleavage at 100 uM incubated for 30 mins using 32P-labeled RNA by denaturing polyacrylamide gel electrophoresis method. The format is nucleic-acid assay.
Assay [5] can be described thus: Binding affinity to pre-miR-136 RNA hairpin mutant (unknown origin) assessed as reduction in human recombinant Dicer-mediated substrate cleavage by measuring cleavage efficiency at 200 uM incubated for 30 mins using 32P-labeled RNA by denaturing polyacrylamide gel electrophoresis method (reference value: 59.1 +/- 2.4%). More on the design: scale not given: the % may be the effect or the level left.

Assay [6] has as its system pre-microRNA 136. Nature of the assay: Binding affinity to internal loop site of pre-miR-136 RNA (unknown origin) at RNA to compound molar ratio of 1:0 by NMR titration assay. The format is nucleic-acid assay.
Assay [7] concerns pre-microRNA 136. Nature of the assay: Binding affinity to C-bulge site of pre-miR-136 RNA (unknown origin) at RNA to compound molar ratio of 1:0 by NMR titration assay. The format is nucleic-acid assay.
A short description of assay [8]: Binding affinity to pre-miR-136 RNA hairpin mutant (unknown origin) at <0.5 uM by SPR assay.
The test system of assay [9] is pre-microRNA 136. In words: Binding affinity to pre-miR-136 RNA (unknown origin) at 63 nM by SPR assay. The format is nucleic-acid assay.
Assay [10] deals with pre-microRNA 136. Nature of the assay: Binding affinity to pre-miR-136 RNA (unknown origin) assessed as reduction in human recombinant Dicer-mediated substrate cleavage by measuring cleavage efficiency at 200 uM incubated for 30 mins using 32P-labeled RNA by denaturing polyacrylamide gel electrophoresis method (reference value: 94.3 +/- 2.3%). The format is nucleic-acid assay. More on the design: scale not given: the % may be the effect or the level left.

Assay [11] is described as follows: Binding affinity to pre-miR-136 RNA delta-internal loop mutant (unknown origin) assessed as normalized equilibrium binding response (Req) value at 1 uM by SPR assay relative to control.
The nature of assay [12]: Binding affinity to pre-miR-136 RNA delta-C-bulge mutant (unknown origin) at <0.5 uM by SPR assay.
Assay [13] deals with pre-microRNA 136. Nature of the assay: Binding affinity to pre-miR-136 RNA (unknown origin) assessed as reduction in human recombinant Dicer-mediated substrate cleavage incubated for 30 mins using 32P-labeled RNA by denaturing polyacrylamide gel electrophoresis method. The format is nucleic-acid assay.
Assay [14] in a line: Binding affinity to pre-miR-136 RNA delta-C-bulge mutant (unknown origin) at 0.063 to 1 uM by SPR assay.
Assay [15] in a line: Binding affinity to pre-miR-136 RNA delta-internal loop mutant (unknown origin) at 0.063 to 1 uM by SPR assay.
For assay [16], the system named is pre-microRNA 136. In words: Binding affinity to pre-miR-136 RNA (unknown origin) assessed as normalized equilibrium binding response (Req) value at 1 uM by SPR assay relative to control. The format is nucleic-acid assay.
For assay [17], the target named is pre-microRNA 136. In words: Binding affinity to pre-miR-136 RNA (unknown origin) at 0.063 to 1 uM by SPR assay. The format is nucleic-acid assay.
The nature of assay [18]: Binding affinity to pre-miR-136 RNA delta-C-bulge mutant (unknown origin) assessed as normalized equilibrium binding response (Req) value at 1 uM by SPR assay relative to control.
Assay [19] in a line: Binding affinity to pre-miR-136 RNA delta-C-bulge mutant (unknown origin) assessed as reduction in human recombinant Dicer-mediated substrate cleavage by measuring cleavage efficiency at 200 uM incubated for 30 mins using 32P-labeled RNA by denaturing polyacrylamide gel electrophoresis method (reference value: 89.1 +/- 2.3%). More on the design: scale not given: the % may be the effect or the level left.

The nature of assay [20]: Binding affinity to pre-miR-136 RNA delta-internal loop mutant (unknown origin) assessed as reduction in human recombinant Dicer-mediated substrate cleavage by measuring cleavage efficiency at 200 uM incubated for 30 mins using 32P-labeled RNA by denaturing polyacrylamide gel electrophoresis method (reference value: 94.5 +/- 1.4%). More on the design: scale not given: the % may be the effect or the level left.

Assay [21] has as its system pre-microRNA 136. In words: Binding affinity to pre-miR-136 RNA (unknown origin) assessed as reduction in Km(app) for human recombinant Dicer-mediated substrate cleavage at 100 uM incubated for 30 mins using 32P-labeled RNA by denaturing polyacrylamide gel electrophoresis method. It counts as nucleic-acid assay.

Active and inactive are the calls of the source. No cut-off for these calls is given here.

One may read the Kd as the equilibrium constant for the complex coming apart. As a reminder, the Km is the substrate concentration at which the rate is half of its maximum. As for `NCCCNc1ccc2c(n1)nc(NCCCN)c1ccccc12`, the result (in the assay with pre-microRNA 136 [1]; in the assay on pre-microRNA 136 [6]; in assay [8]; in assay [12]) was inactive. Further, the Kd was 65000 µM in assay [2] (read-out: Kd), 3200 µM in assay [14] (read-out: Kd), 0.45 µM in [15] (read-out: Kd) and 0.47 µM on pre-microRNA 136 [17] (read-out: Kd). Besides, the result in the assay with pre-microRNA 136 [3], with pre-microRNA 136 [7] and in the assay on pre-microRNA 136 [9] was Active. Besides, in the assay with pre-microRNA 136 [4], the Vmax(app) is 0.38 nM/min. The Activity in [5] was 58.2%; in the assay with pre-microRNA 136 [10], 71.9%; in assay [11], 4.73 RU; in the assay with pre-microRNA 136 [13] it was “Dose-dependent effect”; with pre-microRNA 136 [16], 4.32 RU; in assay [18], 1.73 RU. Moreover, the Activity in [19] was determined as 80.5%; in [20], 80.6%. For the same molecule, the Km in the assay with pre-microRNA 136 [21] turned out to be 0.0279 µM.
Regarding `Nc1ccc2ccc(N)nc2n1`, the Kd entry (in [2]; in assay [14]; in [15]; in the assay on pre-microRNA 136 [17]) was “Not Active” in each case.
